Tests used:
Klebsiella pneumoniae = assay: Growth inhibition of Klebsiella pneumoniae ATCC 700603 incubated for 18 hrs; assay type: organism-based
Enterococcus faecalis = assay: Growth inhibition of Enterococcus faecalis ATCC 29212 incubated in MHB broth for 24 hrs; assay type: organism-based
Clostridioides difficile [1] = assay: Antibacterial activity against Clostridium difficile NSW132 RT027 incubated for 2 to 4 hrs in pre-reduced brucella broth supplemented with haemin/vitamin K and further incubation in anaerobic condition for 48 hrs; assay type: functional
Pseudomonas aeruginosa = assay: Growth inhibition of Pseudomonas aeruginosa ATCC 27853 incubated for 18 hrs; assay type: organism-based
Escherichia coli = assay: Growth inhibition of Escherichia coli ATCC 25922 incubated for 18 hrs; assay type: organism-based
Acinetobacter baumannii = assay: Growth inhibition of Acinetobacter baumannii ATCC 19606 incubated for 18 hrs without shaking by absorbance based monochromator plate reader analysis; assay type: organism-based, ATCC 19606 = CIP 70.34 = JCM 6841; conditions: in vitro
Staphylococcus aureus [2] = assay: Growth inhibition of Staphylococcus aureus ATCC 29213 incubated in MHB broth for 24 hrs; assay type: organism-based
Staphylococcus aureus [3] = assay: Growth inhibition of methicillin-resistant Staphylococcus aureus ATCC 43300 incubated for 18 hrs; assay type: organism-based
Clostridioides difficile [4] = assay: Antibacterial activity against Clostridium difficile ATCC 700057 incubated for 2 to 4 hrs in pre-reduced brucella broth supplemented with haemin/vitamin K and further incubation in anaerobic condition for 48 hrs; assay type: functional
[5] = Cytotoxicity against HEK293 cells assessed as decrease in cell viability after 20 hrs by resazurin dye-based fluorescence assay; conditions: human
Streptococcus pneumoniae = assay: Growth inhibition of Streptococcus pneumoniae ATCC 49619 incubated in MHB medium with lysed horse blood and 5% CO2 for 24 hrs; assay type: organism-based
[6] = Haemolytic activity in sheep erythrocytes assessed as induction of haemolysis at 5 ug/ml incubated for 2 hrs relative to control; assay type: cell-based, Ovis aries, Erythrocyte; conditions: read-out: Activity
[7] = Haemolytic activity in sheep erythrocytes assessed as induction of haemolysis at 50 ug/ml incubated for 2 hrs relative to control; assay type: cell-based, Ovis aries, Erythrocyte; conditions: read-out: Activity

SMILES | MIC (Klebsiella pneumoniae) | MIC (Enterococcus faecalis) | MIC (Clostridioides difficile [1]) | MIC (Pseudomonas aeruginosa) | MIC (Escherichia coli) | MIC (Acinetobacter baumannii) | MIC (Staphylococcus aureus [2]) | MIC (Staphylococcus aureus [3]) | MIC (Clostridioides difficile [4]) | CC50 at 20 h [5] | MIC (Streptococcus pneumoniae) | hemolysis at 2 h, 5 ug/ml [6] | hemolysis at 2 h, 50 ug/ml [7]
CC(C)CCOc1ccc2ccccc2c1-c1c(OCc2cn([C@H](CCCCN)C(=O)N[C@H](CCCNC(=N)N)C(=O)NCc3ccccc3)nn2)ccc2ccccc12.Cl.Cl | 32 µg/mL | 8 µg/mL | 16 µg/mL | 32 µg/mL | > 32 µg/mL | 32 µg/mL | 8 µg/mL | 4 µg/mL | 16 µg/mL | 17.4 µg/mL | 8 µg/mL | – | –
CC(C)CCOc1ccccc1-c1ccccc1OCc1cn([C@H](CCCNC(=N)N)C(=O)NCCc2ccccc2)nn1.Cl | > 32 µg/mL | 4 µg/mL | 32 µg/mL | > 32 µg/mL | > 32 µg/mL | 32 µg/mL | 2 µg/mL | 8 µg/mL | 8 µg/mL | 17.9 µg/mL | 4 µg/mL | – | –
CC(C)CCOc1ccccc1-c1ccccc1OCc1cn([C@H](CCCNC(=N)N)C(=O)Nc2ccccc2)nn1.Cl | > 32 µg/mL | 2 µg/mL | 32 µg/mL | > 32 µg/mL | > 32 µg/mL | > 32 µg/mL | 2 µg/mL | 8 µg/mL | 16 µg/mL | 21.6 µg/mL | 2 µg/mL | – | –
CC(C)CCOc1ccc2ccccc2c1-c1c(OCc2cn([C@H](CCCNC(=N)N)C(=O)N[C@H](CCCCN)Cn3cc(CC4CCCCC4)nn3)nn2)ccc2ccccc12.Cl.Cl | > 32 µg/mL | 4 µg/mL | 8 µg/mL | 32 µg/mL | > 32 µg/mL | 32 µg/mL | 4 µg/mL | – | 8 µg/mL | > 32 µg/mL | 2 µg/mL | 1.8% | 71.5%
CC(C)CCOc1ccccc1-c1ccccc1OCc1cn([C@H](CCCCN)C(=O)NCc2ccc(C(F)(F)F)cc2)nn1.Cl | > 32 µg/mL | 4 µg/mL | 32 µg/mL | > 32 µg/mL | > 32 µg/mL | 32 µg/mL | 4 µg/mL | 8 µg/mL | 32 µg/mL | > 32 µg/mL | 8 µg/mL | – | –
CC(C)CCOc1ccc2ccccc2c1-c1c(OCc2cn([C@H](CCCNC(=N)N)C(=O)N[C@H](CCCCN)Cn3cc(CCc4ccccc4)nn3)nn2)ccc2ccccc12.Cl.Cl | > 32 µg/mL | 4 µg/mL | 16 µg/mL | 32 µg/mL | > 32 µg/mL | 32 µg/mL | 4 µg/mL | 4 µg/mL | 16 µg/mL | > 32 µg/mL | 2 µg/mL | – | –
CC(C)CCOc1ccccc1-c1ccccc1OCc1cn([C@H](CCCNC(=N)N)C(=O)NCC2CCCCC2)nn1.Cl | > 32 µg/mL | 8 µg/mL | 64 µg/mL | > 32 µg/mL | > 32 µg/mL | > 32 µg/mL | 4 µg/mL | 4 µg/mL | 32 µg/mL | 16.9 µg/mL | 8 µg/mL | – | –
CC(C)CCOc1ccccc1-c1ccccc1OCc1cn([C@H](CCCCN)C(=O)N[C@H](CCCNC(=N)N)Cn2cc(Cc3ccccc3)nn2)nn1.Cl.Cl | 32 µg/mL | 8 µg/mL | 16 µg/mL | 16 µg/mL | 8 µg/mL | 16 µg/mL | 4 µg/mL | 4 µg/mL | 8 µg/mL | 17.1 µg/mL | 4 µg/mL | – | –
CC(C)CCOc1ccccc1-c1ccccc1OCc1cn([C@H](CCCCN)C(=O)NC2CCCCC2)nn1.Cl | > 32 µg/mL | 16 µg/mL | 32 µg/mL | 32 µg/mL | > 32 µg/mL | 32 µg/mL | 8 µg/mL | 8 µg/mL | 16 µg/mL | > 32 µg/mL | 8 µg/mL | – | –
CC(C)CCOc1ccccc1-c1ccccc1OCc1cn([C@H](CCCNC(=N)N)C(=O)N[C@H](CCCCN)Cn2cc(Cc3ccccc3)nn2)nn1.Cl.Cl | 32 µg/mL | 8 µg/mL | 16 µg/mL | 16 µg/mL | > 32 µg/mL | 32 µg/mL | 8 µg/mL | 8 µg/mL | 32 µg/mL | > 32 µg/mL | 4 µg/mL | – | –

— ChEMBL document CHEMBL4393656, “Cationic biaryl 1,2,3-triazolyl peptidomimetic amphiphiles targeting Clostridioides (Clostridium) difficile: Synthesis, antibacterial evaluation and an in vivo C. difficile infection model” (Eur J Med Chem, 2019)
